In US20250388541A1, “HETEROARYL COMPOUNDS FOR THE TREATMENT OF PAIN” (VERTEX PHARMACEUTICALS INCORPORATED, priority 2022, published 2025):

What follows are molecules tested against human NaV 1.8 (Homo sapiens, UniProt Q9Y5Y9) (assay: E-VIPR assay detecting and measuring NaV inhibition properties). Conditions: HEK cells expressing a truncated form of human NaV 1.8; electrical stimulation, membrane potential FRET dyes; read-out: measured IC50 value in the E-VIPR Assay.
human NaV 1.8, sequence (Q9Y5Y9 126-399 limits assumed): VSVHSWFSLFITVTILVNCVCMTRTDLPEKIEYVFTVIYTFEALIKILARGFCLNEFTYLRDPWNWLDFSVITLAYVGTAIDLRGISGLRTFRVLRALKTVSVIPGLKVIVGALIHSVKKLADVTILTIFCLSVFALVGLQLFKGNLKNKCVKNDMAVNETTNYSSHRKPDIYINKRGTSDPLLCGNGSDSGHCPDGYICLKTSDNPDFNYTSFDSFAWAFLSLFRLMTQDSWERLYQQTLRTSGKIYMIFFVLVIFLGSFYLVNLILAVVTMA
human NaV 1.8, sequence (Q9Y5Y9 660-890 limits assumed): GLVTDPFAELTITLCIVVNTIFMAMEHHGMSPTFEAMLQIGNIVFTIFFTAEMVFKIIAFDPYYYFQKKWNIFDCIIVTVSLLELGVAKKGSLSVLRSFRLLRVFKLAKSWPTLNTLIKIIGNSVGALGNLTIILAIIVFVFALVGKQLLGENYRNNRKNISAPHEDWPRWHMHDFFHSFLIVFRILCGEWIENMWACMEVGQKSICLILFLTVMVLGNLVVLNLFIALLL
human NaV 1.8, sequence (Q9Y5Y9 1148-1722 limits assumed): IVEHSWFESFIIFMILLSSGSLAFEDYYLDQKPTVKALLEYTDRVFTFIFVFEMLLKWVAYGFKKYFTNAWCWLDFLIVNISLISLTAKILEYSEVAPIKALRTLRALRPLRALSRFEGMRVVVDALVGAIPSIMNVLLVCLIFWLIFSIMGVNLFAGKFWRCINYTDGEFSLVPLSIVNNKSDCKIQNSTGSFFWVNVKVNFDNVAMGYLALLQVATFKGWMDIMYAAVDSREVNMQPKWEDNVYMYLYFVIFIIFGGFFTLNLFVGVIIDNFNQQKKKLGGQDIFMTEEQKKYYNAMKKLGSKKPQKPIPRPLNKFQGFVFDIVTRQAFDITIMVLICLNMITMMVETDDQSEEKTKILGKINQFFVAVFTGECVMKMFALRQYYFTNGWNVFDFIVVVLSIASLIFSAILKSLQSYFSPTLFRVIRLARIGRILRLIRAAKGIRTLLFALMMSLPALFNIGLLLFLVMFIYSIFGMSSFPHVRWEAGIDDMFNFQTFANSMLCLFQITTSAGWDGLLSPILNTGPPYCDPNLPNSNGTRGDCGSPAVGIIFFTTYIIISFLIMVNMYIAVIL
Assay type: cell-based
Description: E-VIPR Assay Detecting and Measuring NaV Inhibition Properties
Sodium ion channels are voltage-dependent proteins that can be activated by inducing membrane voltage changes by applying electric fields. […] The instrument comprises a microtiter plate handler, an optical system for exciting the coumarin dye while simultaneously recording the coumarin and oxonol emissions, a waveform generator, a current- or voltage-controlled amplifier, and parallel electrode pairs that are inserted into assay plate wells. Under integrated computer control, this instrument passes user-programmed electrical stimulus protocols to cells within the wells of the microtiter plate.
16-20 hours prior to running the assay on E-VIPR, HEK cells expressing a truncated form of human NaV 1.8 with full channel activity were seeded into microtiter 384-well plates, pre-coated with matrigel, at a density of 25,000 cells per well. 2.5-5% KIR2.1 BacMam virus was added to the final cell suspension before seeding into cell plates. […] Cells were expanded in 5-layer CellSTACK culture chambers or cell culture flasks with vented caps, with 90-95% humidity and 5% CO2.
• Bath 1 Buffer containing 0.5% 3-cyclodextrin (made fresh prior to each use, Sigma #C4767), […] CC2-DMPE and 2 μM DiSBAC6(3). The solution was made by adding 10% Pluronic F127 stock equal to combined volumes of CC2-DMPE and DiSBAC6(3).
The compound plate was backfilled with 45 μL per well of Compound Loading Buffer resulting in a 240-fold dilution of compound following a 1:1 transfer of compound into the cell plate (see Step 6). […] This assay dilution protocol was adjusted to enable a higher dose range to be tested in the presence of HS or if the final assay volume was altered. • 2) Hexyl Dye Solution was prepared. • 3) Cell plates were prepared. On the day of the assay, the media was aspirated, and the cells were washed three times with 80 μL of Bath-1 buffer, maintaining 25 μL residual volume in each well. • 4) 25 μL per well of Hexyl Dye Solution was dispensed into the cell plates. The cells were incubated for 20 minutes at room temperature or ambient conditions in darkness. • 5) 45 μL per well of Compound Loading Buffer was dispensed into compound plates. • 6) The cell plates were washed three times with 80 μL per well of Bath-1 Buffer, leaving 25 μL of residual volume. Then 25 µL per well from compound plate was transferred to each cell plate. The mixture was incubated for 30 minutes at room temperature/ambient conditions. • 7) The cell plate containing compound was read on E-VIPR using the current-controlled amplifier to deliver stimulation wave pulses using a symmetrical biphasic waveform. […] A pre-stimulus recording was performed for each well for 0.5 seconds to obtain the un-stimulated intensities baseline. The stimulatory waveform was followed by 0.5 seconds of post-stimulation recording to examine the relaxation to the resting state. All E-VIPR responses were measured at 200 Hz acquisition rate.
The response as a function of time was reported as the ratios obtained using the following formula: […]
The data were normalized by calculating the initial (Ri) and final (Rf) ratios. These were the average ratio values during part or all of the pre-stimulation period and during sample points during the stimulation period. The fluorescence ratio (Rf/Ri) was then calculated and reported as a function of time.
Control responses were obtained by performing assays in the presence of the positive control, and in the absence of pharmacological agents (DMSO vehicle negative control). Responses to the negative (N) and positive (P) controls were calculated as above. The compound antagonist % activity A was then defined as:
[formula] • where X is the maximum amplitude of the ratio response or number of action potential peaks, at the beginning of the pulse train in the presence of test compound.
In the case of `CC(=O)Nc1c(C)[nH]c(-c2ccc(C(C)(C)C)cc2C)cc1=O` [Compound 157, N-[6-(4-tert-butyl-2-methyl-phenyl)-2-methyl-4-oxo-1H-pyridin-3-yl]acetamide], the IC50 is reported as 500 to 2000 nM.
`Cc1cc(C(C)(C)C)ccc1-c1cc(=O)c(NC(=O)[C@@H](C)N)c(C)[nH]1` [Compound 155, (2R)-2-amino-N-[6-(4-tert-butyl-2-methyl-phenyl)-2-methyl-4-oxo-1H-pyridin-3-yl]propanamide] showed an IC50 of 500 to 2000 nM.
`Cc1cc(C(C)(C)C)ccc1-c1cc(=O)c(C2CCN(C)CC2)c(C)[nH]1` [Compound 204, 6-(4-tert-butyl-2-methyl-phenyl)-2-methyl-3-(1-methyl-4-piperidyl)-1H-pyridin-4-one] was tested, and the IC50 was 500 to 2000 nM.
`COc1cc(=O)cc(-c2ccc(C(C)(C)C)cc2C)[nH]1` [Compound 104, 2-(4-tert-butyl-2-methyl-phenyl)-6-methoxy-1H-pyridin-4-one] showed an IC50 of 2000 to 5000 nM.
Work on `COCn1ccnc1-c1c(C)[nH]c(-c2cc(Cl)c(C(C)(C)C)cc2C)cc1=O` [Compound 201, 6-(4-tert-butyl-5-chloro-2-methyl-phenyl)-3-[1-(methoxymethyl)imidazol-2-yl]-2-methyl-1H-pyridin-4-one] yielded an IC50 of 2000 to 5000 nM.
For `Cc1cc(=O)c(C)c(-c2ccc(C3(C(F)(F)F)CC3)cc2)[nH]1` [Compound 78, 3,6-dimethyl-2-[4-[1-(trifluoromethyl)cyclopropyl]phenyl]-1H-pyridin-4-one], the IC50 was 2000 to 5000 nM.
`Cc1cc(C(C)(C)C)c(Cl)cc1-c1cc(=O)c(-c2cn(C)c(C)n2)c(C)[nH]1` [Compound 197, 6-(4-tert-butyl-5-chloro-2-methyl-phenyl)-3-(1,2-dimethylimidazol-4-yl)-2-methyl-1H-pyridin-4-one] was tested, and the IC50 was 500 to 2000 nM.
Work on `Cc1cc(=O)cc(-c2c(C)cc(C(C)(C)C)cc2C)[nH]1` [Compound 3, 2-(4-tert-butyl-2,6-dimethyl-phenyl)-6-methyl-1H-pyridin-4-one] yielded an IC50 of 500 to 2000 nM.
In the case of `Cc1cc(C(C)(C)C)ccc1-c1cc(=O)c(NC(=O)[C@H](C)N)c(C)[nH]1` [Compound 156, (2S)-2-amino-N-[6-(4-tert-butyl-2-methyl-phenyl)-2-methyl-4-oxo-1H-pyridin-3-yl]propanamide], the IC50 is reported as 2000 to 5000 nM.
Molecule `Cc1cc(C(C)(C)C)ccc1-c1cc(=O)c(C2=CCN(C)CC2)c(C)[nH]1` [Compound 174, 6-(4-tert-butyl-2-methyl-phenyl)-2-methyl-3-(1-methyl-3,6-dihydro-2H-pyridin-4-yl)-1H-pyridin-4-one] has an IC50 of 2000 to 5000 nM.
In the case of `Cc1[nH]c(-c2ccc(C3(C(F)(F)F)CC3)cc2)cc(=O)c1C` [Compound 82, 2,3-dimethyl-6-[4-[1-(trifluoromethyl)cyclopropyl]phenyl]-1H-pyridin-4-one], the IC50 is reported as 500 to 2000 nM.
`Cc1cc(=O)c(C)c(-c2ccc(C(C)(C)C)cc2C)[nH]1` [Compound 75, 2-(4-tert-butyl-2-methyl-phenyl)-3,6-dimethyl-1H-pyridin-4-one] showed an IC50 of 500 to 2000 nM.
With `CCOC(=O)c1c(-c2c(C)cc(C(C)(C)C)cc2C)[nH]c(C)c(C)c1=O` [Compound 98, ethyl 2-(4-tert-butyl-2,6-dimethyl-phenyl)-5,6-dimethyl-4-oxo-1H-pyridine-3-carboxylate] the IC50 was 500 to 2000 nM.
Molecule `Cc1cc(=O)c(C)c(-c2ccc(C(C)(C)C)cc2)[nH]1` [Compound 77, 2-(4-tert-butylphenyl)-3,6-dimethyl-1H-pyridin-4-one] has an IC50 of 500 to 2000 nM.
For `Cc1cc(C(C)(C)C)c(Cl)cc1-c1cc(=O)c(S(=N)(=O)C(C)C)c(C)[nH]1` (stereo not drawn) [Compound 145, 6-(4-tert-butyl-5-chloro-2-methyl-phenyl)-3-(isopropylsulfonimidoyl)-2-methyl-1H-pyridin-4-one], the IC50 was 500 to 2000 nM.
With `COc1nc2ccccc2cc1-c1cc(=O)c(C)c(C)[nH]1` [Compound 95, 6-(2-methoxy-3-quinolyl)-2,3-dimethyl-1H-pyridin-4-one] the IC50 was 2000 to 5000 nM.
`Cc1cc(C(C)(C)C)ccc1-c1cc(=O)c(-c2cccnc2C#N)c(C)[nH]1` [Compound 172, 3-[6-(4-tert-butyl-2-methyl-phenyl)-2-methyl-4-oxo-1H-pyridin-3-yl]pyridine-2-carbonitrile] gave an IC50 of 500 to 2000 nM.
`Cc1cc(C(C)(C)C)ccc1-c1cc(=O)cc(N(C)C)[nH]1` [Compound 100, 2-(4-tert-butyl-2-methyl-phenyl)-6-(dimethylamino)-1H-pyridin-4-one] gave an IC50 of 500 to 2000 nM.
`CCOc1c(-c2ccc(C(C)(C)C)cc2C)[nH]c(C)cc1=O` [Compound 106, 2-(4-tert-butyl-2-methyl-phenyl)-3-ethoxy-6-methyl-1H-pyridin-4-one] showed an IC50 of 500 to 2000 nM.
`Cc1cc(C(C)(C)C)c(Cl)cc1-c1cc(=O)c(-c2ncc[nH]2)c(C)[nH]1` [Compound 212, 6-(4-tert-butyl-5-chloro-2-methyl-phenyl)-3-(1H-imidazol-2-yl)-2-methyl-1H-pyridin-4-one] gave an IC50 of 500 to 2000 nM.
`Cc1cc(C(C)(C)C)ccc1-c1cc(=O)c(CN)c(C)[nH]1` [Compound 154, 3-(aminomethyl)-6-(4-tert-butyl-2-methyl-phenyl)-2-methyl-1H-pyridin-4-one] was tested, and the IC50 was 500 to 2000 nM.
`Cc1cc(C(C)(C)C)ccc1-c1cc(=O)c(C2=CCNCC2)c(C)[nH]1` [Compound 205, 6-(4-tert-butyl-2-methyl-phenyl)-2-methyl-3-(1,2,3,6-tetrahydropyridin-4-yl)-1H-pyridin-4-one] gave an IC50 of 500 to 2000 nM.
For `Cc1[nH]c(-c2ccc(C(C)(C)C)cc2)cc(=O)c1C` [Compound 79, 6-(4-tert-butylphenyl)-2,3-dimethyl-1H-pyridin-4-one], the IC50 was 500 to 2000 nM.
For `COc1c(-c2ccc(C(C)(C)C)cc2C)[nH]c(C)cc1=O` [Compound 107, 2-(4-tert-butyl-2-methyl-phenyl)-3-methoxy-6-methyl-1H-pyridin-4-one], the IC50 was 500 to 2000 nM.
With `Cc1nc(-c2ccc(C(C)(C)C)cc2C)cc(=O)[nH]1` [Compound 83, 4-(4-tert-butyl-2-methyl-phenyl)-2-methyl-1H-pyrimidin-6-one] the IC50 was 2000 to 5000 nM.
`Cc1cc(=O)cc(-c2ccc(C3(C(F)(F)F)CC3)cc2C)[nH]1` [Compound 96, 2-methyl-6-[2-methyl-4-[1-(trifluoromethyl)cyclopropyl]phenyl]-1H-pyridin-4-one] was tested, and the IC50 was 500 to 2000 nM.
`Cc1cc(=O)cc(-c2ccc(C(C)C)cc2C(C)C)[nH]1` [Compound 43, 2-(2,4-diisopropylphenyl)-6-methyl-1H-pyridin-4-one] gave an IC50 of 2000 to 5000 nM.
